Target: hemoglobin (Homo sapiens, UniProt P68871+P69905)
Assay: Stability of hemoglobin in samples preserved at 37° C. in preservation solution containing no haptoglobin, Hb measured by latex agglutination method (Examples 8, 9 and Table 10)
Conditions: for Hb concentration / Recovery ratio with respect to Hb after 0 days: no phenylboronic acid, sugar 100 mmol/L; for recovery ratio of hemoglobin in the sample: sugar further added to phenylboronic acid 0.5 mmol/L, no haptoglobin, Feces 1, Feces 2, Feces 3
In short: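 Latex agglutination gave Hb concentration after storage at 37 °C for up to 62 h. Preservation solution (HEPES 40 mmol/L pH 6.8, BSA, NaN3, no haptoglobin) contained 0–2.5 mmol/L phenylboronic acid, some with added sugars (10–250 mmol/L). Samples held about 300 μg/L Hb, with or without 0.5% feces.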

Sequence of hemoglobin (P69905 2-142): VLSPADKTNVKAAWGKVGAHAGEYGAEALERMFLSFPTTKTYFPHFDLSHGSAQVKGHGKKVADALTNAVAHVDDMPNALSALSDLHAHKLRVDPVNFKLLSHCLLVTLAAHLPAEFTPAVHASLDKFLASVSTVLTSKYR
Sequence of hemoglobin (P68871 2-147): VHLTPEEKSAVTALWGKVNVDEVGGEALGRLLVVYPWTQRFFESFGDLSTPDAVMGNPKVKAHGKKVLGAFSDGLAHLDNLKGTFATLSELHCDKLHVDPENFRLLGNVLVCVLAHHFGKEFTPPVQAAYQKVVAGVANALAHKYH

Structure (SMILES)	Hb concentration (Feces 1, 0 h at 37° C.) [µg/L]	Recovery ratio with respect to Hb after 0 days (Feces 1, 0 h at 37° C.) [%]	Hb concentration (Feces 1, 16 h at 37° C.) [µg/L]	Recovery ratio with respect to Hb after 0 days (Feces 1, 16 h at 37° C.) [%]	Hb concentration (Feces 1, 38 h at 37° C.) [µg/L]	Recovery ratio with respect to Hb after 0 days (Feces 1, 38 h at 37° C.) [%]	Hb concentration (Feces 1, 62 h at 37° C.) [µg/L]	Recovery ratio with respect to Hb after 0 days (Feces 1, 62 h at 37° C.) [%]	Hb concentration (Feces 2, 0 h at 37° C.) [µg/L]	Recovery ratio with respect to Hb after 0 days (Feces 2, 0 h at 37° C.) [%]	Hb concentration (Feces 2, 16 h at 37° C.) [µg/L]	Recovery ratio with respect to Hb after 0 days (Feces 2, 16 h at 37° C.) [%]	Hb concentration (Feces 2, 38 h at 37° C.) [µg/L]	Recovery ratio with respect to Hb after 0 days (Feces 2, 38 h at 37° C.) [%]	Hb concentration (Feces 2, 62 h at 37° C.) [µg/L]	Recovery ratio with respect to Hb after 0 days (Feces 2, 62 h at 37° C.) [%]	Hb concentration (No feces, 0 h at 37° C.) [µg/L]	Recovery ratio with respect to Hb after 0 days (No feces, 0 h at 37° C.) [%]	Hb concentration (No feces, 16 h at 37° C.) [µg/L]	Recovery ratio with respect to Hb after 0 days (No feces, 16 h at 37° C.) [%]	further results
OC[C@@H](O)[C@@H](O)[C@H](O)[C@H](O)CO [Mannitol, mannitol]	276	100	131	48	29	10	1	0	266	100	55	21	1	0	0	0	281	100	254	91	Hb concentration (No feces, 38 h at 37° C.): 237 µg/L; Recovery ratio with respect to Hb after 0 days (No feces, 38 h at 37° C.): 84%; Hb concentration (No feces, 62 h at 37° C.): 235 µg/L; Recovery ratio with respect to Hb after 0 days (No feces, 62 h at 37° C.): 84%; recovery ratio of hemoglobin in the sample: further improved
OC[C@@H](O)[C@@H](O)[C@H](O)[C@@H](O)CO [Sorbitol, sorbitol]	290	100	146	50	39	13	1	0	275	100	61	22	0	0	0	0	300	100	263	88	Hb concentration (Feces 3, 0 h at 37° C.): 277 µg/L; Recovery ratio with respect to Hb after 0 days (Feces 3, 0 h at 37° C.): 100%; Hb concentration (Feces 3, 16 h at 37° C.): 49 µg/L; Recovery ratio with respect to Hb after 0 days (Feces 3, 16 h at 37° C.): 18%; Hb concentration (Feces 3, 38 h at 37° C.): 1 µg/L; Recovery ratio with respect to Hb after 0 days (Feces 3, 38 h at 37° C.): 0%; Hb concentration (Feces 3, 62 h at 37° C.): 0 µg/L; Recovery ratio with respect to Hb after 0 days (Feces 3, 62 h at 37° C.): 0%; Hb concentration (No feces, 38 h at 37° C.): 245 µg/L; Recovery ratio with respect to Hb after 0 days (No feces, 38 h at 37° C.): 82%; Hb concentration (No feces, 62 h at 37° C.): 235 µg/L; Recovery ratio with respect to Hb after 0 days (No feces, 62 h at 37° C.): 79%; recovery ratio of hemoglobin in the sample: further improved
